Reference: EP1600504A1, “Control of transglutaminase catalyzed protein modification by selective irreversible transglutaminase inhibitors” (N-Zyme BioTec GmbH, priority 2004, dated 2005)
Peptide text beside a SMILES is read from it. * marks the point of attachment. Cbz = O=C(OCc1ccccc1)*; Acryloyl = C=CC(=O)*; ClAc = O=C(CCl)*

What was measured:
[1] = biological target: T1, bakterielle Transglutaminase (Streptomyces mobaraensis, UniProt P81453); assay: Labelling of recombinant Concanavalin A stopped by inhibitor, SDS-PAGE fluorescence (Beispiel 4); assay type: biochemical; conditions: rekombinantes Concanavalin A, stopped after 2 and 5 min, then 30 min RT
T1 sequence (P81453 77-407): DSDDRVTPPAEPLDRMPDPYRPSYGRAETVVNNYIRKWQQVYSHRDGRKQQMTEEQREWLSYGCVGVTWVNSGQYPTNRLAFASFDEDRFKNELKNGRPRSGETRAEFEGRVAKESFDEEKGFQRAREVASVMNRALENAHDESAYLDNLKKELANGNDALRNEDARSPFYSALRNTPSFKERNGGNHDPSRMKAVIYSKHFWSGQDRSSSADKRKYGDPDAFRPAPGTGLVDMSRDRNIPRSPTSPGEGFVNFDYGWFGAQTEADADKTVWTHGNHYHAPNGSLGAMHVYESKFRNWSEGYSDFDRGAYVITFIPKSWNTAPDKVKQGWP
Method: (§1) Alle nachfolgend beschriebenen Experimente wurden nach dem gleichen Standardprotokoll durchgeführt. Dabei werden das jeweilige Zielprotein und das farbstofftragende amin- oder glutaminhaltige Substrat in einem geeigneten Puffer vorgelegt und für 5 Min. auf 37°C temperiert. Anschließend wird durch Zugabe von Transglutaminase die Reaktion gestartet. Nach variierenden Inkubationszeiten, durch die jeweils verschiedene Markierungsgrade erreicht werden, wird durch Zugabe eines Inhibitors die Transglutaminase vollständig und irreversibel inaktiviert (Reaktionsabbruch 1). In Kontrollexperimenten wird die Markierungsreaktion durch Abtrennung des ungebundenen, farbstofftragenden Substrates unterbrochen (Reaktionsabbruch 2). Die Abtrennung des ungebundenen Farbstoffes erfolgt unter Normaldruck über eine PD-10-Säule (Amersham Biosciences). Dieses allgemein einsetzbare Verfahren zur schnellen Abtrennung kleiner Moleküle von Makromolekülen wie Proteinen basiert auf dem Prinzip der Gelpermeationschromatographie und kann als das vorteilhafteste Verfahren zur Reaktionskontrolle nach dem Stand der Technik angesehen werden. Andere Verfahren, mit denen die weitere katalytische Markierungsreaktion abgebrochen werden könnte, sind weniger geeignet oder nicht allgemein einsetzbar (z. B. thermische, unspezifische chemische oder affinitätschromatographische Methoden). […]

Transglutaminase [2] = assay: Transglutaminase-catalysed labelling reaction stopped by inhibitor, SDS-PAGE fluorescence (Beispiel 3); assay type: biochemical
Method: as §1

Transglutaminase [3] = assay: Transglutaminase-catalysed labelling reaction stopped by inhibitor, SDS-PAGE fluorescence (Beispiel 1); assay type: biochemical; conditions: Zielprotein N,N-Dimethylcasein, stopped after 2, 10 and 20 min, large excess of unbound dye present, transglutaminase only given in an image table
Method: as §1

[4] = biological target: T2, Meerschweinchenlebertransglutaminase (Cavia cutleri, UniProt P08587); assay: Labelling of recombinant hLeptin stopped by inhibitor, RP-HPLC (Beispiel 7); assay type: biochemical, Meerschweinchen
T2 sequence (P08587 2-690 limits assumed): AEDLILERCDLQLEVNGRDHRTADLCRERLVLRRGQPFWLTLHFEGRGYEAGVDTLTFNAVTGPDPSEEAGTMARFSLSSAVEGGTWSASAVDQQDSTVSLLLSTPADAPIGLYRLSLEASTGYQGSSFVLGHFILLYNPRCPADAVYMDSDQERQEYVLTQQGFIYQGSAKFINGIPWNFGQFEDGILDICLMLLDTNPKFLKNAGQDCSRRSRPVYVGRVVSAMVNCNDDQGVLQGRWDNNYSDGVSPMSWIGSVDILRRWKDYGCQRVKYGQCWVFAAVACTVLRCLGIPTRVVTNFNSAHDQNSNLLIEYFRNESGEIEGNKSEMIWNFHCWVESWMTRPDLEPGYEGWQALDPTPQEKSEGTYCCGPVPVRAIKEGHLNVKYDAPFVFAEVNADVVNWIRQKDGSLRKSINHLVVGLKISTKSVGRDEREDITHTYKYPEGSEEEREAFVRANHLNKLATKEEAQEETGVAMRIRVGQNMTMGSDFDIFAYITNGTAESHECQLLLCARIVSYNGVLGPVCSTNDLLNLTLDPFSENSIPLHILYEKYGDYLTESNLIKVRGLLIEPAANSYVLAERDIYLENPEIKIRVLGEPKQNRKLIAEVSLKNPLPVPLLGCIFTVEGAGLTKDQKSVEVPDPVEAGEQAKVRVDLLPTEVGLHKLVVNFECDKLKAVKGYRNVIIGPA
Method: as §1, with “Methoden). Die Gelpermeationschromatographie wurde jeweils so schnell wie technisch machbar durchgeführt. Dazu wird auf die vorkonditionierte PD-10-Säule 2,5 ml des Reaktionsvolumens aufgetragen und die Lösung vollständig in das Trennmaterial eingebracht. Anschließend wird das Protein mit 3,5 ml Puffer eluiert. Die niedermolekularen Substanzen verbleiben auf der Säule. Der Gesamtprozess benötigt eine Zeitspanne von mindestens 3 Minuten. Während dieser Zeit kann Transglutaminase weiter auf das Zielprotein einwirken.” for “Methoden).”

[5] = biological target: T1, bakterielle Transglutaminase; assay: Labelling of recombinant hIRS1-p30-N-K stopped by inhibitor, SDS-PAGE fluorescence (Beispiel 6); assay type: biochemical
Method: as §1

Transglutaminase [6] = assay: Transglutaminase-catalysed labelling reaction stopped by inhibitor, SDS-PAGE fluorescence (Beispiel 5); assay type: biochemical; conditions: stopped after 2, 5 and 10 min, then 30 min RT
Method: as §1

For `COC(=O)[C@H](Cc1ccccc1)NC(=O)[C@H](CCC(=O)C[S+](C)C)NC(=O)OCc1ccccc1` [Z-SON-Phe-OMe, Nα-Benzyloxycarbonyl-L-(6-dimethylsulfonium-5-oxonorleucinyl)phenylalaninmethylester], the “weitere Markierungsreaktion nach Inhibitorzugabe” value [1] was “keine weitere Markierungsreaktion mehr”.
For `[N-]=[N+]=CC(=O)CC[C@H](NC(=O)OCc1ccccc1)C(=O)NCC(=O)O` [Z-DON-Gly-OH, N^α-Benzyloxycarbonyl-L-(6-diazo-5-oxonorleucinyl)glycin], the “weiteres Labeling des Zielproteins nach Abtrennung des Inhibitors” value (Transglutaminase [2]; inhibitor removed by gel permeation chromatography, fresh unbound dye added, 30 min RT) was “kein weiteres Labeling des Zielproteins” and the “Markierungsreaktion nach Zugabe des Inhibitors” value (Transglutaminase [2]; stopped after 5 min, sample directly after inhibitor addition) was “wird die Reaktion gestoppt”.
In the case of `CC[C@H](C)[C@H](NC(=O)[C@H](CCC(N)=O)NC(=O)[C@H](CCC(=O)C[S+](C)C)NC(=O)OC(C)(C)C)C(=O)N[C@H](C(=O)OC)C(C)C` [Boc-SON-Gln-Ile-Val-OH, N^α-tert.-Butyloxycarbonyl-L-(6-dimethylsulfonium-5-oxonorleucinyl)-L-glutaminyl-L-isoleucinyl-L-valinmethylester], the “weitere katalytische Reaktion nach Zugabe des Inhibitors” value (Transglutaminase [3]) is reported as “Eine weitere katalytische Reaktion findet nach Zugabe des Inhibitors nicht statt”.
For `C=CC(=O)NCCCC[C@H](NC(=O)OCc1ccccc1)C(=O)NCC(=O)O` [Z-Lys(Acryloylamid)-Gly-OH, N^α-Benzyloxycarbonyl-L-lysinyl(ε-acryloyl)glycin] (Cbz-Lys(Acryloyl)-Gly-OH), the “Inaktivierung der Meerschweinchenlebertransglutaminase” value ([4]; stopped after 5 min) was “inaktiviert Meerschweinchenlebertransglutaminase vollständig”, the “weitere Labeling- und Quervernetzungsreaktionen” value ([4]; stopped after 5 min, then 30 and 60 min RT) was “keine weitere Labeling- und Quervernetzungsreaktionen” and the “weitere enzymatische Reaktionen nach Lagerung” value ([4]; storage 10 days at -20°C, then one hour RT) was “keine weiteren enzymatischen Reaktionen mehr”.
`COC(=O)[C@H](Cc1ccccc1)NC(=O)[C@H](CCC(=O)C=[N+]=[N-])NC(=O)OCc1ccccc1` [Z-DON-Phe-OMe, N^α-Benzyloxycarbonyl-L-(6-diazo-5-oxonorleucinyl)-L-phenylalaninmethylester] was tested, and the “weitere Modifikation des Zielproteins nach Abtrennung von Farbstoff und Inhibitor” value ([5]; dye and inhibitor removed, kept at RT 30 min, 1 h, 2 h, 4 h) was “keine weitere Modifikation des Zielproteins” and the “Inhibition der Transglutaminase” value ([5]; stopped after 5 min) was “vollständige und irreversible Inhibition der Transglutaminase”.
For `O=C(O)CNC(=O)[C@H](COC(=O)CCl)NC(=O)OCc1ccccc1` [Z-Ser(OAcCl)-Gly-OH, N^α-Benzyloxycarbonyl-L-serinyl(O-chloracetyl)glycin] (Cbz-Ser(ClAc)-Gly-OH), the “weitere Markierungsreaktionen nach Inhibitorzugabe” value (Transglutaminase [6]) was “keine weiteren Markierungsreaktionen mehr”.
